From article PMC10095950, “Development of Cell Permeable NanoBRET Probes for the Measurement of PLK1 Target Engagement in Live Cells” (Molecules, 2023)
Where two headings read alike, the source gives them in different places.

Assays:
[1] = tested on: a range of cancer cell lines; design: method as in as in column Ref. of Table 1 ([5]-[8],[14],[19]-[21]); settings: ref as in Table 1 ([5]-[8],[14],[19]-[21]), read-out: Reported Cell Proliferation IC50; cited from earlier work
human PLK1 (NLuc-PLK1) = target: T1, human PLK1 (NLuc-PLK1) (Homo sapiens, UniProt P53350); assay: PLK1 NanoBRET target engagement assay (NLuc-PLK1, N-terminal fusion) in live HEK293 cells; assay type: cell-based
T1 construct: plasmid DNAs encoding N- and C-terminal fusions of full-length PLK1 with NLuc; host or cells: HEK293
T1 sequence (P53350 whole entry, the tested form may be a part): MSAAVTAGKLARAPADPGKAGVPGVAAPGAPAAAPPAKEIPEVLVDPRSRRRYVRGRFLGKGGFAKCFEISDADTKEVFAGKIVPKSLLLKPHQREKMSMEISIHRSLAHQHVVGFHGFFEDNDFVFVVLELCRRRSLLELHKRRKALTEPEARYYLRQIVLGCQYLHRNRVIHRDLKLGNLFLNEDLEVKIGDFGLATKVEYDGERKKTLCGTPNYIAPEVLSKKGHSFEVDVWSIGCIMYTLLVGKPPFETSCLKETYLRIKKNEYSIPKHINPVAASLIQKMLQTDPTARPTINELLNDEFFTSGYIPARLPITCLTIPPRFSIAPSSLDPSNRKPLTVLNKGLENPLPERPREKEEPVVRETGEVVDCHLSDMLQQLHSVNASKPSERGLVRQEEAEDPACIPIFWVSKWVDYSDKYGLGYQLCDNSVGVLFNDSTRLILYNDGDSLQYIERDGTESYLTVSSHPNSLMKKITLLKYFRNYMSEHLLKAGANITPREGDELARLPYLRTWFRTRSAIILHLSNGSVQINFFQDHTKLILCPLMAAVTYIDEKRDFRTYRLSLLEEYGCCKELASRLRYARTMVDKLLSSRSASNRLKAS
Protocol: HEK293 cells (ATCC) were cultured in DMEM (Gibco) + 10% FBS (Seradigm) with incubation in a humidified 37 °C/5% CO2 incubator. N- or C-terminal NLuc/PLK fusions were encoded in pFN31K expression vectors (Promega), including flexible Gly-Ser-Ser-Gly linkers between NLuc and ORFs corresponding to UniProt isoform 1 (PLK1: P53350-1, PLK2: Q9NYY3-1, and PLK3: Q9H4B4-1). Carrier DNA was encoded in pGEM-3Z vectors (Promega). For cellular BRET target engagement experiments, HEK293 cells were transfected with NLuc/PLK fusion constructs using FuGENE HD (Promega) according to the manufacturer’s protocol. […] One part (vol) of FuGENE HD complexes thus formed was combined with 20 parts (vol) of HEK293 cells suspended at a density of 2 × 10^5 per mL, followed by incubation in a humidified 37 °C/5% CO2 incubator for 20 hr.
(§1) To test BRET probes 10 and 11 against PLK1, HEK293 adherent cells were incubated with either NLuc fused to the N-terminus of PLK1 (NLuc-PLK1) or the C-terminus of PLK1 (PLK1-NLuc) using 1 µM of the BRET probe, and mBRET units were measured. […] NLuc-PLK2 and NLuc-PLK3 were tested with both probes 10 and 11 using the same protocol.
To estimate the half-maximal effective concentration (EC50) of probe 11 to PLK1 in cells, adherent HEK293 cells in a 96-well plate expressing the NLuc-PLK1 fusion protein were mixed with an increasing concentration of BRET probe 11. The resulting BRET ratio was fitted to the sigmoidal 4-parameter dose–response curve using Prism 9.0 (GraphPad, Boston MA, USA).

PLK1 (PLK1-NLuc) = target: T2, PLK1 (PLK1-NLuc) (Homo sapiens, UniProt P53350); assay: BRET probe evaluation with NLuc fused to the C-terminus of PLK1 (PLK1-NLuc) in HEK293 cells; assay type: cell-based; settings: 1 µM probe, PLK1-NLuc (C-terminal fusion), adherent HEK293 cells
T2 construct: plasmid DNAs encoding N- and C-terminal fusions of full-length PLK1 with NLuc; host or cells: HEK293
T2 sequence (P53350 whole entry, the tested form may be a part): as above
Protocol: (§2) HEK293 cells (ATCC) were cultured in DMEM (Gibco) + 10% FBS (Seradigm) with incubation in a humidified 37 °C/5% CO2 incubator. N- or C-terminal NLuc/PLK fusions were encoded in pFN31K expression vectors (Promega), including flexible Gly-Ser-Ser-Gly linkers between NLuc and ORFs corresponding to UniProt isoform 1 (PLK1: P53350-1, PLK2: Q9NYY3-1, and PLK3: Q9H4B4-1). Carrier DNA was encoded in pGEM-3Z vectors (Promega). For cellular BRET target engagement experiments, HEK293 cells were transfected with NLuc/PLK fusion constructs using FuGENE HD (Promega) according to the manufacturer’s protocol. Briefly, NLuc/PLK fusion constructs were diluted into Transfection Carrier DNA (Promega) at a mass ratio of 1:9 (mass/mass), after which FuGENE HD was added at a ratio of 1:3 (µg DNA: µL FuGENE HD). One part (vol) of FuGENE HD complexes thus formed was combined with 20 parts (vol) of HEK293 cells suspended at a density of 2 × 10^5 per mL, followed by incubation in a humidified 37 °C/5% CO2 incubator for 20 hr.
To test BRET probes 10 and 11 against PLK1, HEK293 adherent cells were incubated with either NLuc fused to the N-terminus of PLK1 (NLuc-PLK1) or the C-terminus of PLK1 (PLK1-NLuc) using 1 µM of the BRET probe, and mBRET units were measured. The combination with the highest mBRET units was selected for further processing. […]

PLK1 = settings: ref as in Table 1 ([5],[6],[8],[14],[19],[20],[21]); read-out: Reported Enzyme Inhibition IC50 PLK1; cited from earlier work
human PLK3 (NLuc-PLK3) = target: T3, human PLK3 (NLuc-PLK3) (Homo sapiens, UniProt Q9H4B4); assay: PLK3 NanoBRET target engagement assay (NLuc-PLK3) in live HEK293 cells; assay type: cell-based; settings: HEK293, probe 11 1.0 µM, 2 h; average of two technical replicates ±15%
T3 construct: ORFs corresponding to UniProt isoform 1 (PLK1: P53350-1, PLK2: Q9NYY3-1, and PLK3: Q9H4B4-1); host or cells: HEK293
T3 sequence (Q9H4B4 whole entry, canonical isoform): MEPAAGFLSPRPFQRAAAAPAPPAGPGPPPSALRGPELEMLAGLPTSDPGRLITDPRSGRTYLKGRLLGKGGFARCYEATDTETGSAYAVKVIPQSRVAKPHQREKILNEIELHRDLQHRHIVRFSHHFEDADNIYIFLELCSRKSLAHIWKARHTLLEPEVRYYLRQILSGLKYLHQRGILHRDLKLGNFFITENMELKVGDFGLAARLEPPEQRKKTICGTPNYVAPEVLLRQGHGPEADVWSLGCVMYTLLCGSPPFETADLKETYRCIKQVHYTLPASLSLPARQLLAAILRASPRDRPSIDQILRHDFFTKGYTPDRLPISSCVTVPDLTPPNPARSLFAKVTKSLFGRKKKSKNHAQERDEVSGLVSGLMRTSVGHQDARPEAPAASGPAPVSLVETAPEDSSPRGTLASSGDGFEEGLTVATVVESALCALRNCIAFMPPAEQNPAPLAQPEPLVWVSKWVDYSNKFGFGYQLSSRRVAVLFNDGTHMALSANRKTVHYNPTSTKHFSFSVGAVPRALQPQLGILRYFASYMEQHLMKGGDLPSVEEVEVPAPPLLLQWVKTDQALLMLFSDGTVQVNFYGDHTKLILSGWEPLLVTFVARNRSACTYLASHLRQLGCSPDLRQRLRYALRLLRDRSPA
Protocol: as §2, §1

human PLK2 (NLuc-PLK2) = target: T4, human PLK2 (NLuc-PLK2) (Homo sapiens, UniProt Q9NYY3); assay: PLK2 NanoBRET target engagement assay (NLuc-PLK2) in live HEK293 cells; assay type: cell-based; settings: HEK293, probe 11 1.0 µM, 2 h; average of two technical replicates ±15%
T4 construct: ORFs corresponding to UniProt isoform 1 (PLK1: P53350-1, PLK2: Q9NYY3-1, and PLK3: Q9H4B4-1); host or cells: HEK293
T4 sequence (Q9NYY3 whole entry, canonical isoform): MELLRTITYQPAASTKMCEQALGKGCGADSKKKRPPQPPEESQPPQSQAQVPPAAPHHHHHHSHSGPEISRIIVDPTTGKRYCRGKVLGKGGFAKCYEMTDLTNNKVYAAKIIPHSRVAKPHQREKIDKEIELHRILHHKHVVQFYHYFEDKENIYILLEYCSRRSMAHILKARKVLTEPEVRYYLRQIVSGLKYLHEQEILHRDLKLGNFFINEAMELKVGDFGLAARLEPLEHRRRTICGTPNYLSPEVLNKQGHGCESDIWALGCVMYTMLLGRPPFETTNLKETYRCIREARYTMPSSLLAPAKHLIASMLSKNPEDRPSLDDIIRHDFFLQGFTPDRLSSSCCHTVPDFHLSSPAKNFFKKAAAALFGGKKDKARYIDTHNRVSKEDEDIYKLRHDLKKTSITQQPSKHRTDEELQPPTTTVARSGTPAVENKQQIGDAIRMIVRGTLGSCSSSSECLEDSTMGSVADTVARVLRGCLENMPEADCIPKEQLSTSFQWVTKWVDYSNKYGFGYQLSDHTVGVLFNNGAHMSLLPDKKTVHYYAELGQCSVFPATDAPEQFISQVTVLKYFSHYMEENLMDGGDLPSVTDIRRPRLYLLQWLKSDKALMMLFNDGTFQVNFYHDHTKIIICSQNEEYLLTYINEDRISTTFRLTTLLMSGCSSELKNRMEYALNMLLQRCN
Protocol: as §2, §1

Row | SMILES | IC50 [1] | IC50 (PLK1) | IC50 (human PLK3 (NLuc-PLK3)) | IC50 (human PLK2 (NLuc-PLK2)) | further results
1 | C[C@@H](Oc1cc(-n2cnc3ccc(CN4CCN(C)CC4)cc32)sc1C(N)=O)c1ccccc1C(F)(F)F [GSK461364] | 10 to 100 nM |  |  |  | 
2 | CC[C@@H]1C(=O)N(C)c2cnc(Nc3ccc(C(=O)NC4CCNCC4)cc3OC)nc2N1C(C)C [compound 1, (R)-4-((7-ethyl-8-isopropyl-5-methyl-6-oxo-5,6,7,8-tetrahydropteridin-2-yl)amino)-3-methoxy-N-(piperidin-4-yl)benzamide] |  |  |  |  | IC50 (human PLK1 (NLuc-PLK1); Probe 11 Conc. 0.1 μM, NLuc-PLK1, ADH format, read-out: apparent IC50): 203 nM; IC50 (human PLK1 (NLuc-PLK1); Probe 11 Conc. 0.2 μM, NLuc-PLK1, ADH format, read-out: apparent IC50): 228 nM; IC50 (human PLK1 (NLuc-PLK1); Probe 11 Conc. 0.4 μM, NLuc-PLK1, ADH format, read-out: apparent IC50): 246 nM; IC50 (human PLK1 (NLuc-PLK1); Probe 11 Conc. 0.6 μM, NLuc-PLK1, ADH format, read-out: apparent IC50): 285 nM; IC50 (human PLK1 (NLuc-PLK1); Probe 11 Conc. 0.8 μM, NLuc-PLK1, ADH format, read-out: apparent IC50): 291 nM; IC50 (human PLK1 (NLuc-PLK1); Probe 11 Conc. 1 μM, NLuc-PLK1, ADH format, read-out: apparent IC50): 316 nM; Kd (human PLK1 (NLuc-PLK1); linearized Cheng–Prusoff analysis, y-intercept of IC50 vs probe 11 concentration, live HEK293 cells, read-out: apparent KD for intracellular target engagement of PLK1): 120 nM
3 | CC[C@@H]1C(=O)N(C)c2cnc(Nc3ccc(C(=O)NC4CCN(C(=O)CCc5ccc6n5[B-](F)(F)[N+]5=C(c7ccc[nH]7)C=CC5=C6)CC4)cc3OC)nc2N1C(C)C [probe 10, (R)-N-(1-(3-(5,5-difluoro-7-(1H-pyrrol-2-yl)-5H-5^λ,6^λ-dipyrrolo[1,2-c:2’,1’-f][1-3]diazaborinin-3-yl)propanoyl)piperidin-4-yl)-4-((7-ethyl-8-isopropyl-5-methyl-6-oxo-5,6,7,8-tetrahydropteridin-2-yl)amino)-3-methoxybenzamide] |  |  |  |  | BRET ratio (PLK1 (PLK1-NLuc)): ~ 15; BRET ratio (human PLK1 (NLuc-PLK1); 1 µM probe, NLuc-PLK1, adherent HEK293 cells): ~ 39
4 | CC[C@@H]1C(=O)N(C)c2cnc(Nc3ccc(C(=O)N[C@H]4CC[C@H](N5CCN(CC6CC6)CC5)CC4)cc3OC)nc2N1C(C)C [Volasertib] | 11 to 37 nM | 0.87 nM | 59 nM | 23 nM | IC50 (human PLK1 (NLuc-PLK1); HEK293, probe 11 0.2 µM, 2 h, average of two technical replicates ±15%, read-out: NanoBRET Target Engagement IC50 PLK1): 18 nM
5 | Cc1ncc(CCCN(C)C)cc1Nc1ncc2c(n1)-c1ccc(C(F)(F)F)cc1NC(=S)C2 [MLN0905] |  | 2 nM |  |  | 
6 | CN1CCN(c2ccc(OC(F)(F)F)c(Nc3ncc4c(n3)-c3c(c(C(N)=O)nn3CCO)CC4)c2)CC1 [Onvansertib] | 42 nM | […] |  |  | 
7 | CCC1(F)CN(C2CCCC2)c2nc(Nc3ccc(C(=O)NC4CCN(C)CC4)cc3OC)ncc2N(C)C1=O (stereo not drawn) [TPKI-26] | 5 nM |  | 1700 nM | 64 nM | 
8 | COc1cc(C(=O)NC2CCN(C)CC2)ccc1Nc1ncc2c(n1)N(C1CCCC1)CC(F)(F)C(=O)N2C [Ro3280] | 6 to 45 nM |  | 180 nM | 45 nM | 
